Experimental data: ChEMBL document CHEMBL1629468, “Synthesis and antitumor activity of novel benzimidazole-5-carboxylic acid derivatives and their transition metal complexes as topoisomerease II inhibitors” (2010)

How the values were obtained:
[1] = Growth inhibition of human gastric cancer cells after 72 hrs by sulforhodamine B assay; type: functional; details: Cancer cell lines, Stomach, pooled result: one value given for 3 cell lines, strains, targets or settings
Cancer cell lines [2] = assay: Ratio of compound GI50 to etoposide GI50 for human lung cancer cells; type: functional
Cancer cell lines [3] = assay: Ratio of compound GI50 to etoposide GI50 for human colon cancer cells; type: functional
[4] = target: DNA topoisomerase 2-alpha (Mus musculus) (UniProt Q01320); assay: Ratio of compound to etoposide on inhibitory effect of mouse DNA topoisomerase 2
DNA topoisomerase 2-alpha (Mus musculus), sequence (Q01320 whole entry): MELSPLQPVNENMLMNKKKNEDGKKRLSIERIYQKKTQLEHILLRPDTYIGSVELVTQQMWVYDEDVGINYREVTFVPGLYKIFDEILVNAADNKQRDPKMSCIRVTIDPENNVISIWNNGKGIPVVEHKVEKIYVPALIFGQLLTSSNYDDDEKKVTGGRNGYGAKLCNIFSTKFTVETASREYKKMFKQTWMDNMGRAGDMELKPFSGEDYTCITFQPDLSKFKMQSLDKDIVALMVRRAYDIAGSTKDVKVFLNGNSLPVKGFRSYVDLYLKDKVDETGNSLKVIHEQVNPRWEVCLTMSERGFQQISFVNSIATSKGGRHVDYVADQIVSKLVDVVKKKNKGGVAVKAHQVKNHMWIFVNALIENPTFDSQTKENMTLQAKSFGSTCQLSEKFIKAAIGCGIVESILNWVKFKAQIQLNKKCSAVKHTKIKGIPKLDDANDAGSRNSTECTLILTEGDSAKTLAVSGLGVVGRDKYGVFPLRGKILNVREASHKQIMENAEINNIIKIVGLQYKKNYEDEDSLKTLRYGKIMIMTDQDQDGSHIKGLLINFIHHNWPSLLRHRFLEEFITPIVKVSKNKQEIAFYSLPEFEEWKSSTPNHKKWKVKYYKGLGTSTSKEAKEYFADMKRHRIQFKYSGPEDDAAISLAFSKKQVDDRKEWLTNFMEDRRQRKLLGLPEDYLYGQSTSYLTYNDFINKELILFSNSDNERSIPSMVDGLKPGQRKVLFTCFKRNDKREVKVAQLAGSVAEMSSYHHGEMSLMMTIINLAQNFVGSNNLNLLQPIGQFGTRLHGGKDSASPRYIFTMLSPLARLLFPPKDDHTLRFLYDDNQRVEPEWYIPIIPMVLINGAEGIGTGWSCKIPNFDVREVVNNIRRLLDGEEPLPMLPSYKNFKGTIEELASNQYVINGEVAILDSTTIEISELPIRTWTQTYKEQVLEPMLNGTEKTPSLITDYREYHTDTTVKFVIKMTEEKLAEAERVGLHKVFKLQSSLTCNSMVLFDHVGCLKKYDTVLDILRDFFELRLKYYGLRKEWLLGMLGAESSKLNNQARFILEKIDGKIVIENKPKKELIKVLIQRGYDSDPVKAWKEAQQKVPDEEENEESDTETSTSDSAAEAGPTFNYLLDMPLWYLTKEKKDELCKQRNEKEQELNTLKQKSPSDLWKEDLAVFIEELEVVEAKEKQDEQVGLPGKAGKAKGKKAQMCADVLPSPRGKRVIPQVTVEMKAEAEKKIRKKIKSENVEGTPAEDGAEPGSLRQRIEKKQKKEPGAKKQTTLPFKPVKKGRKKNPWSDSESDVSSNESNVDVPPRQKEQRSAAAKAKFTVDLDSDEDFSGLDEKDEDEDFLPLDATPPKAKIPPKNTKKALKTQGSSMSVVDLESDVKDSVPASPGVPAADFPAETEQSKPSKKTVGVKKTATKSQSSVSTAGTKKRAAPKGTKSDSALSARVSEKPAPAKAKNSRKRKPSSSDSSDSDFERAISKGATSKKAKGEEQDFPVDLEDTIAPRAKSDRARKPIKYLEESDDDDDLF

Cancer cell lines [5] = assay: Ratio of compound GI50 to etoposide GI50 for human gastric cancer cells; type: functional, Stomach

| SMILES | GI50 [1] | other results |
| --- | --- | --- |
| COc1cc([C@@H]2c3cc4c(cc3[C@@H](O[C@@H]3O[C@@H]5CO[C@@H](C)O[C@H]5[C@H](O)[C@H]3O)[C@H]3COC(=O)[C@H]23)OCO4)cc(OC)c1O [ETOPOSIDE] | 1.3 µM |  |
| CCc1c2c(nc3ccc(O)cc13)-c1cc3c(c(=O)n1C2)COC(=O)[C@]3(O)CC [7-ETHYL-10-HYDROXYCAMPTOTHECIN] | 0.066 µM |  |
| O=C(O)c1ccc2[nH]c(CCl)nc2c1 | > 100 µM |  |
| O=C(O)c1ccc2[nH]c(CNc3nc4ccccc4[nH]3)nc2c1 | > 100 µM |  |
| O=C(O)c1ccc2[nH]c(CNc3ccncc3)nc2c1 | 17 µM |  |
| COc1cccc2c1C(=O)c1c(O)c3c(c(O)c1C2=O)C[C@@](O)(C(=O)CO)C[C@@H]3O[C@H]1C[C@H](N)[C@H](O)[C@H](C)O1 [DOXORUBICIN] | 0.065 µM |  |
| O=C(O)c1ccc2[nH]c(C[n+]3ccccc3)nc2c1.[Cl-] | 0.095 µM | RatioGI50 (Cancer cell lines [2]): 7; RatioGI50 (Cancer cell lines [3]): 7; Ratio [4]: 10; RatioGI50 (Cancer cell lines [5]): 7 |
| O=C(O)c1ccc2[nH]c(CNc3nccs3)nc2c1 | 47 µM |  |
| O=C(O)c1ccc2[nH]c(CNc3ccccn3)nc2c1 | 22 µM |  |
